Experimental data from the CheMixHub viscosity set.
± gives the uncertainty stated by the source.

Test: xn = mol fraction of the nth substance listed

Nc1ccccc1 + CCCCOCCO
viscosity [mPa·s]
Details	298 K	303 K	303.15 K	308 K	313 K	318 K
101 kPa, x1 = 0.138	–	–	2.999 ± 0.055	–	–	–
101 kPa, x1 = 0.2648	–	–	3.156 ± 0.057	–	–	–
101 kPa, x1 = 0.3818	–	–	3.287 ± 0.06	–	–	–
101 kPa, x1 = 0.49	–	–	3.4 ± 0.062	–	–	–
101 kPa, x1 = 0.5903	–	–	3.486 ± 0.063	–	–	–
101 kPa, x1 = 0.6837	–	–	3.553 ± 0.064	–	–	–
101 kPa, x1 = 0.7708	–	–	3.614 ± 0.066	–	–	–
101 kPa, x1 = 0.8522	–	–	3.666 ± 0.066	–	–	–
101 kPa, x1 = 0.9284	–	–	3.707 ± 0.067	–	–	–
101.3 kPa, x2 = 0.0995	3.539 ± 0.094	2.974 ± 0.079	–	2.573 ± 0.068	2.238 ± 0.059	1.967 ± 0.052
101.3 kPa, x2 = 0.1968	3.471 ± 0.092	2.915 ± 0.077	–	2.528 ± 0.067	2.189 ± 0.058	1.929 ± 0.051
101.3 kPa, x2 = 0.2548	3.448 ± 0.091	2.887 ± 0.077	–	2.512 ± 0.066	2.184 ± 0.058	1.922 ± 0.051
101.3 kPa, x2 = 0.3024	3.429 ± 0.091	2.886 ± 0.077	–	2.507 ± 0.066	2.16 ± 0.057	1.905 ± 0.051
101.3 kPa, x2 = 0.3953	3.397 ± 0.09	2.86 ± 0.076	–	2.482 ± 0.066	2.145 ± 0.057	1.893 ± 0.05
101.3 kPa, x2 = 0.4355	3.39 ± 0.09	2.854 ± 0.076	–	2.477 ± 0.066	2.143 ± 0.057	1.892 ± 0.05
101.3 kPa, x2 = 0.5146	3.35 ± 0.088	2.833 ± 0.075	–	2.463 ± 0.065	2.123 ± 0.056	1.875 ± 0.05
101.3 kPa, x2 = 0.5909	3.31 ± 0.087	2.805 ± 0.074	–	2.438 ± 0.065	2.108 ± 0.056	1.856 ± 0.05
101.3 kPa, x2 = 0.6936	3.219 ± 0.085	2.731 ± 0.072	–	2.381 ± 0.063	2.07 ± 0.055	1.827 ± 0.049
101.3 kPa, x2 = 0.8002	3.1 ± 0.082	2.588 ± 0.069	–	2.332 ± 0.061	2.02 ± 0.054	1.787 ± 0.048
101.3 kPa, x2 = 0.8933	2.974 ± 0.078	2.545 ± 0.067	–	2.259 ± 0.06	1.962 ± 0.052	1.742 ± 0.047

CC(C)(C)O + CCCCCCCC
viscosity [mPa·s], 101 kPa
Details	x1 = 0.8499	x1 = 0.9	x1 = 0.9235
303.15 K	–	–	2.015 ± 0.012
313.15 K	1.075 ± 0.0093	1.275 ± 0.0098	–

Nc1ccccc1 + CCCCCCCCCO
viscosity [mPa·s], 100 kPa
Details	x1 = 0.0851	x1 = 0.1597	x1 = 0.2339	x1 = 0.3537	x1 = 0.4468	x1 = 0.5616	x1 = 0.6482	x1 = 0.7383	x1 = 0.8486	x1 = 0.9448
293.15 K	9.99 ± 0.8	8.96 ± 0.72	8.14 ± 0.65	6.97 ± 0.56	6.19 ± 0.5	5.33 ± 0.43	4.9 ± 0.39	4.53 ± 0.36	4.24 ± 0.34	4.2 ± 0.34
303.15 K	6.9 ± 0.55	6.21 ± 0.5	5.58 ± 0.45	4.87 ± 0.39	4.36 ± 0.35	3.79 ± 0.3	3.46 ± 0.28	3.24 ± 0.26	3.06 ± 0.25	3.04 ± 0.24
313.15 K	4.94 ± 0.4	4.47 ± 0.36	4.08 ± 0.33	3.58 ± 0.29	3.25 ± 0.26	2.85 ± 0.23	2.64 ± 0.21	2.48 ± 0.2	2.38 ± 0.19	2.38 ± 0.19
323.15 K	3.67 ± 0.29	3.35 ± 0.27	3.06 ± 0.25	2.71 ± 0.22	2.47 ± 0.2	2.19 ± 0.18	2.05 ± 0.16	1.94 ± 0.16	1.87 ± 0.15	1.88 ± 0.15

CC(C)(C)O + CCCCCCCCCC
Details	viscosity [mPa·s]
323.15 K, 101 kPa, x1 = 0.9499	1.155 ± 0.0094
